Several values for one entry are separate records, joined by “and”; a condition that tells them apart may be missing. Equal values may be shown once.
Legend:
[1] = HepG2 cytotoxicity, CellTiter-Glo, 48 h; conditions: human, HepG2 cells
HepG2 cells [2] = test: HepG2 cytotoxicity, CellTiter-Glo, 48 h; conditions: Homo sapiens, HepG2, read-out: HepG2 inhibition (%)
[3] = HEK293 cytotoxicity, CellTiter-Glo, 48 h; conditions: human, HEK293 cells
HEK293 cells [4] = test: HEK293 cytotoxicity, CellTiter-Glo, 48 h; conditions: Homo sapiens, HEK293, read-out: HEK293 inhibition (%)
[5] = biological target: T. brucei cathepsin L-like protease (TbrCATL) (Trypanosoma brucei rhodesiense, UniProt Q95PM0); test: TbrCATL inhibition assay, Z-FR-AMC substrate; assay type: biochemical; conditions: for SI TbrCATL: IC50 hCatL/IC50 TbrCATL; for IC50: IC50 TbrCATL (nM), mean ± SD, two experiments in triplicate (n = 6); for TbrCATL inhibition (%): at 10 μM; for inhibition at 10 µM: read-out: TbrCATL inhibition (%), at 10 μM
Chain of T. brucei cathepsin L-like protease (TbrCATL) (Q95PM0 1-450): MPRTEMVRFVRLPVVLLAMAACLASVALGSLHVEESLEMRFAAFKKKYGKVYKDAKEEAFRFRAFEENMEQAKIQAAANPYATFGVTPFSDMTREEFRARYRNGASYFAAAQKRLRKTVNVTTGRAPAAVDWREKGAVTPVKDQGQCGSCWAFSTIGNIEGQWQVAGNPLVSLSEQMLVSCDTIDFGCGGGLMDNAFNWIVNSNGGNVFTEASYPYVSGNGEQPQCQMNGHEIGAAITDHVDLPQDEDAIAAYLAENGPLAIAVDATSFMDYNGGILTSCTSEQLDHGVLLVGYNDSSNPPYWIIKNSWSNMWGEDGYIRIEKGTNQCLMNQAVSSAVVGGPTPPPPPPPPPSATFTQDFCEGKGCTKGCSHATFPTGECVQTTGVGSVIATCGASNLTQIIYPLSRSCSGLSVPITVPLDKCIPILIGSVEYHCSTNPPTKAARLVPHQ
Experimental: (§1) All experiments were performed in a 384-well black microplate, using a Synergy HTX (Biotek) plate reader at 25 °C with absorption/emission wavelengths of 360/460 nm. Assays were performed in triplicate wells and DMSO was used as a vehicle control. Enzyme activity was measured and normalized to DMSO controls, and the inhibitor E-64 (10 μM) was used as a positive control for all assays. Experiments were performed in triplicate, with at least two independent assays (n = 6 data points). IC50 values were determined through nonlinear regression. The data obtained were analyzed using GraphPad Prism 9.0 (GraphPad Software, La Jolla, California, US).
The screening assay was performed using 0.5 nM of TbrCATL diluted in 0.1 M sodium acetate, 1 mM dithiothreitol (DTT), and 0.01% Triton X-100, pH 5.5. TbrCATL was expressed and purified as described. Enzyme the compound (10 μM), were incubated for 10 min at room temperature. Then the substrate, Z-Phe-Arg-amidomethylcoumarin (Z-FR-AMC; Sigma-Aldrich, C9521), was added (30 μL diluted in the same assay buffer) to yield a final concentration of 2.5 μM and the assay allowed to proceed for 10 min. […] For those compounds inhibiting enzyme activity by >85%, DR assays were performed over 15 2-fold serial dilutions starting at 0.5 or 20 μM.

TbrCATL = conditions: cited from earlier work
hCatL = conditions: E-64, from ref. (number not given); cited from earlier work
[6] = system: T. brucei brucei Lister 427; test: T. b. brucei Lister 427 bloodstream-form growth inhibition, SYBR Green viability assay, 72 h; assay type: cell-based, Trypanosoma brucei brucei; conditions: for EC50: Trypanosoma brucei, three independent experiments in duplicate (n = 6) ± SD, read-out: EC50 T. brucei; for T. brucei inhibition (%): growth inhibition at 10 µM, ± SD
[7] = biological target: T1, human cathepsin L (hCatL) (Homo sapiens, UniProt P07711); test: hCatL inhibition assay, Z-FR-AMC substrate; assay type: biochemical; conditions: mean ± SD, two experiments in triplicate (n = 6)
T1 construct: purchased R&D Systems 952-CY
T1 sequence (P07711 114-333): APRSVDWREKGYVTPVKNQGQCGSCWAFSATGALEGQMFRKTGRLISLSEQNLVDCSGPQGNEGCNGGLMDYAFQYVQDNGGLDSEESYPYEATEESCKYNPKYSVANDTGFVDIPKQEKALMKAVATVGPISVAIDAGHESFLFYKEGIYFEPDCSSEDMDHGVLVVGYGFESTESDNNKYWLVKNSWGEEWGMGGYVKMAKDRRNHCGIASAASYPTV
Experimental: as §1
Recombinant hCatL was purchased from R&D Systems (952-CY) and activated according to the manufacturers protocol. This enzyme, hCatL, is used to test compounds’ selectivity because it is the human homologue of TbrCATL. The assay was modified from, using 25 pM of the enzyme diluted in 40 mM sodium acetate, 5 mM DTT, 100 mM NaCl, 1 mM EDTA and 0.01% Triton X-100, pH 5.5. Enzyme and compound (10 μM), were incubated for 30 min at room temperature. Then Z-FR-AMC was added (30 μL diluted in the same assay buffer) to yield a final concentration of 25 μM and the assay allowed to proceed for 10 min. DR assays were performed over 15 2-fold serial dilutions starting at 0.5 or 20 μM.

[8] = DPPH radical scavenging (antioxidant) assay; conditions: after 2 h, mean ± SEM
in vitro [9] = conditions: human, CC50 HEK293 (μM)
in vitro [10] = conditions: human, CC50 HepG2 (μM)
C2C12 cells = conditions: read-out: Toxicity CC50 C2C12 cells; cited from earlier work
T. cruzi CAI/72 = conditions: cited from earlier work
cruzain (Cz) = conditions: cited from earlier work
[11] = pharmacokinetic study; ref previous work; cited from earlier work
HEK293 cells [12] = conditions: human
HepG2 cells [13] = conditions: human

Row | Compound | inhibition at 10 µM (HepG2 cells [2]) | inhibition at 10 µM (HEK293 cells [4]) | SI TbrCATL [5] | EC50 [6] | T. brucei inhibition (%) ([6]; 10 µM) | IC50 [5] | TbrCATL inhibition (%) [5] | inhibition at 10 µM [5] | IC50 [7] | % inhibited DPPH ([8]; 0.015 mg/ml) | % inhibited DPPH ([8]; 0.03 mg/ml) | % inhibited DPPH ([8]; 0.06 mg/ml) | CC50 (in vitro [9]) | CC50 (in vitro [10]) | CC50 (C2C12 cells) | IC50 (cruzain (Cz)) | other results
1 | CC(C)C[C@H](NC(=O)[C@H](Cc1ccccc1)NC(=O)c1cnccn1)B(O)O [Bortezomib, reference compound] | 100 ± 1% | 100 ± 2% | – | – | – | – | – | – | – | – | – | – | – | – | – | – | CC50 at 48 h [1]: 15 ± 3 nM; CC50 at 48 h [3]: 15 ± 2 nM
2 | CC(C)C[C@H](NC(=O)[C@H]1O[C@@H]1C(=O)O)C(=O)NCCCCN=C(N)N [Compound E-64, E-64] | – | – | 10 | – | – | – | – | – | – | – | – | – | – | – | – | – | IC50 (TbrCATL): 3.1 nM; IC50 (hCatL): 30 ± 4 nM
3 | C/C(=N\Nc1nc(C)c[se]1)c1ccc(Br)cc1 [SeC3] | 80 ± 2% | 88 ± 3% | 4 | 6040 ± 720 nM | 99 ± 2% | 201.7 ± 0.92 nM | 101.02% | > 85% | 793 ± 66.5 nM | 35.00 ± 18.82% | 71.00 ± 3.06% | 75.67 ± 1.45% | 5.9 ± 1.22 µM | 4.68 ± 0.14 µM | > 10000 nM | – | T. brucei inhibition (%) ([6]; listed as Se C3, 10 µM): > 70%
4 | C/C(=N\Nc1nc(C)c[se]1)c1cccc([N+](=O)[O-])c1 [SeC5] | 77 ± 6% | 81 ± 7% | 25 | 10500 ± 1020 nM | 100 ± 2% | – | 98.02% | > 85% | 175 ± 43.7 nM | 77.33 ± 0.88% | 78.00 ± 1.73% | 78.33 ± 1.76% | 9 ± 1.36 µM | 11.3 ± 0.97 µM | > 10000 nM | 8.99 ± 5.56 nM | T. brucei inhibition (%) ([6]; listed as Se C5, 10 µM): > 70%; EC50 (T. cruzi CAI/72): 310 ± 180 nM; oral bioavailability [11]: favorable oral bioavailability
5 | C/C(=N\NC(N)=[Se])c1ccc(C)cc1 [SeO1] | 80 ± 1% | 100 ± 1% | 5 | 980 ± 120 nM | 100 ± 1% | 17.9 ± 3.62 nM | 97.08% | > 85% | 84.5 ± 17 nM | 45.67 ± 9.56% | 78.00 ± 1.16% | 77.33 ± 1.76% | 4.27 ± 0.22 µM | 4.17 ± 0.6 µM | – | – | T. brucei inhibition (%) ([6]; listed as Se O1, 10 µM): > 70%
6 | C/C(=N\NC(N)=[Se])c1ccc(Br)cc1 [SeO3] | 71 ± 15% | 100% | 8 | 470 ± 20 nM | 100 ± 2% | 9.87 nM and 1.22 nM | 99.15% | > 85% | 9.87 ± 0.63 nM | 23.00 ± 13.43% | 75.00 ± 2.65% | 77.67 ± 1.45% | 2.7 µM | 2.82 µM | > 10000 nM | 14.3 ± 3.57 nM | T. brucei inhibition (%) ([6]; listed as Se O3, 10 µM): > 70%; CC50 (HEK293 cells [12]): 2820 ± 110 nM; CC50 (HepG2 cells [13]): 2700 ± 160 nM; EC50 (T. cruzi CAI/72): 770 ± 170 nM
7 | C/C(=N\NC(N)=[Se])c1cccc([N+](=O)[O-])c1 [SeO5] | 85% | 100% | 2 | 5830 ± 720 nM | 100 ± 1% | 0.51 nM and 0.3 nM | 101.47% | > 85% | 0.51 ± 0.08 nM | 22.00 ± 17.67% | 63.33 ± 6.89% | 75.67 ± 1.67% | 2.29 ± 0.26 µM | 5.54 ± 1.47 µM | > 10000 nM | 0.91 ± 0.18 nM | T. brucei inhibition (%) ([6]; listed as Se O5, 10 µM): > 70%

Reference: article PMC12177781, “Chalcogen Derivatives for the Treatment of African Trypanosomiasis: Biological Evaluation of Thio- and Seleno-Semicarbazones and Their Azole Derivatives” (ACS Omega, 2025)
